The source of these data is patent US5368707A, “Convenient determination of trace lead in whole blood and other fluids” (priority 1993, dated 1994).

Experiment [1] addresses T1, isocitrate dehydrogenase (Sus scrofa, UniProt P33198).
T1 construct: purchased Sigma, St. Louis, Mo; ICD Type VI
T1 sequence (P33198 9-421): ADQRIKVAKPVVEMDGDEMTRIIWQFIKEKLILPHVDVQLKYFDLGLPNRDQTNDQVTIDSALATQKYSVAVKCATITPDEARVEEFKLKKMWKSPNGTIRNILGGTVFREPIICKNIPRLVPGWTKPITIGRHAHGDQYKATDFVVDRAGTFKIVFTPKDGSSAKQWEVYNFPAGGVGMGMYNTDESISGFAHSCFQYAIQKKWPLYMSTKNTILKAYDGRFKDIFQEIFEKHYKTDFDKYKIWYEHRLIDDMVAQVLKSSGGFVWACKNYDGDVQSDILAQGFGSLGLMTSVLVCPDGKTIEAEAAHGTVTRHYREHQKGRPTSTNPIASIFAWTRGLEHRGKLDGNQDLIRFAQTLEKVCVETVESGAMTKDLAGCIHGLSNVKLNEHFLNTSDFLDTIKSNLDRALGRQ
Description: Amperometric ICDH activity with lead-containing whole blood samples. Type of experiment: biochemical, pig. The text has this:
The present invention concerns approaches to and methods for determining lead ion levels in whole blood. […] Isocitrate dehydrogenase for example is inhibited by lead. […] This is likely due to binding of lead by blood proteins such as albumin or other proteins, although it is also possible that the enzyme is stabilized by an unidentified blood component.

For experiment [2], the target named is T1, isocitrate dehydrogenase. In words: ICDH inhibition by lead in the presence of EDTA with or without CoSO4 (Example 8). Type of experiment: biochemical, pig. To be noted: 2 mM EDTA; for Inhibition: 2.5 mM CoSO4. The text has this:
A major problem in the measurement of lead in blood is the interference by various blood proteins and, as in the majority of clinical samples, the presence of excess amounts of EDTA. The inventors have discovered that lead chelated with EDTA is exchangeable with cobalt(II). As shown in this example, lead Pb(II) is displaced from EDTA by cobalt(II) and detected by its inhibition of isocitrate dehydrogenase (ICDH).
Micromolor concentrations of lead were detected by ICDH inhibition in the presence of 2 mM EDTA and 2.5 mM CoSO4.

Experiment [3] has as its target T1, isocitrate dehydrogenase. Description: Amperometric lead inhibition of ICDH in homogeneous aqueous solution (Example 1). Type of experiment: biochemical, pig. To be noted: pH 8.5 Tris; for Current: 0 V. The procedure: Pig heart NADP-linked isocitric dehydrogenase (ICD, EC 1.1.1.42), an oxidoreductase, is sensitive to trace levels of lead ion as low as 1 μg/dl. […] In fact, at low concentrations of activator, e.g., <200 ppb Mn^++, the activity of ICD is proportional to Mn^++ and may be used to determine activator concentration (Guilbault, 1970). Inactivation by inhibitors is useful for determining inhibitor concentration. Specificity of enzymes for activators, or inhibitors, is not as great as for the natural substrate of the enzyme, but in some cases inhibitor concentration may be selectively determined. Silver and mercury have been determined in the presence of each other using isocitrate dehydrogenase (Mealor and Townshend, 1968). However, until now, there has been no satisfactory rapid amperometric method to determine lead ion based on ICD inhibition, much less a simple method to determine low lead ion concentrations in whole blood.
The following example illustrates determination of trace amounts of lead ion in aqueous medium through the inhibition of isocitrate dehydrogenase (ICDH) in homogeneous solution.
Commercially available ICDH (Sigma Chemical Company, St. Louis, Mo.) typically contains considerable amounts of sulfate that interferes with lead ion inhibition of ICDH. Dialysis of ICDH against low ionic strength phosphate buffer caused loss of its activity, which was restored by addition of Mn^2+.
A glassy carbon rod of 3 mm diameter was wrapped in teflon tubing as working electrode and surrounded with a layer of Pt foil as the counter electrode with a silver wire placed in between as the reference electrode. At least one layer of teflon was inserted between two of the three electrodes. All three electrode surfaces were on the same plane. Tubing was fixed on the top of the coplanar electrode surface with an O-ring, forming a microcell of 100-200 μl in volume.
To the microcell was added in sequence: 100 μl 50 mM pH 8.5 Tris buffer, ca. 0.3-0.4 units ICDH and, after 15 min, 5 μl 25 mM NMP-MS, 5 μl 60 mM NADP. The background current was measured at 0 V. 10 μl of 0.5M isocitrate was added and the current measured again. The difference in the two signals was taken as due to the oxidation of isocitrate catalyzed by ICDH.
To measure lead inhibition of ICDH, lead ion was added to the above solution after addition of ICDH but 15 min prior to the addition of NMP-MS and NADP. The current difference with isocitrate was due to inhibition of ICDH by the added lead. FIG. 3 indicates the sensitivity of the electrode to lead ion concentrations in the submicromolar range.

In experiment [4] the target is T1, isocitrate dehydrogenase. In words: Effect of temperature on lead inhibition of isocitrate dehydrogenase (Example 9). It is filed as biochemical, pig. To be noted: for Inhibition rate: 4 μM lead, 10 nM enzyme, 15 min; for inhibition rates: lead concentration not printed at this place. On the procedure:
The activity of isocitrate dehydrogenase and its response is affected by several factors.
A solution of isocitrate dehydrogenase (10 nM) was incubated for 15 min at various temperatures between 18° C. and 37° C. and rate of lead inhibition measured. Inhibition rates increased approximately linearly from about 25% to 85% at a lead concentration of 4 μM (FIG. 5).

For another experiment, the system named is Horseradish peroxidase. To be noted: Guilbault, et al., 1968; cited from earlier work.

Each structure is given as a SMILES string.

As for `[Pb+2]` [lead ion], on isocitrate dehydrogenase [1], the “inhibition of isocitrate dehydrogenase activity” value is “do not detectably inhibit isocitrate dehydrogenase activity”. The Inhibition on isocitrate dehydrogenase [2] (12 μM lead) came out at 23%; at isocitrate dehydrogenase [2] (36 μM lead), 32%; on isocitrate dehydrogenase [2] (121 μM lead) it was 47%. Moreover, the “Inhibition (in words)” value on isocitrate dehydrogenase [2] (absence of CoSO4) is listed as “no inhibition was observed”. Moreover, the “% inhibition” value on isocitrate dehydrogenase [3] (1.89 μM Pb++) came to 85.3%; on isocitrate dehydrogenase [3] (90.9 μM Pb++), 98.2%. Further, the values for the Current on isocitrate dehydrogenase [3] (1.89 μM Pb++) and at isocitrate dehydrogenase [3] (90.9 μM Pb++) were 218 nA and 26 nA, respectively. Further, the Inhibition rate result on isocitrate dehydrogenase [4] (18° C.) is “about 25%”; at isocitrate dehydrogenase [4] (37° C.), ~85%. Moreover, the inhibition rates on isocitrate dehydrogenase [4] (18° C.) is listed as 25%; at isocitrate dehydrogenase [4] (37° C.) it was “about 85%”. For the same compound, in the experiment with Horseradish peroxidase, the “linear range of peroxidase inhibition” value is 10 to 185 µg/mL.
